What all share (test): NCI tumour cell line growth inhibition, 48 h
The test system of experiment [1] is OVCAR-4 ovarian.
The test system of experiment [2] is M19-MEL melanoma.
For experiment [3], the system named is EKVX NSCLC.
Experiment [4] relates to UO-31 renal.
Experiment [5] relates to SNB-78 CNS.
Experiment [6] has as its system HCC-2998 colon.
Experiment [7] has as its system SK-MEL-5 melanoma.
Experiment [8] relates to NCI-H23 lung.
Experiment [9] deals with MDA-MB-231 breast.
Experiment [10] has as its system BT-549 breast.
For experiment [11], the system named is HS 578T breast.

Structures are written as SMILES.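 All cell lines were grown in 96-well plates and treated with compound for 48 hours. TGI is the concentration that stops growth completely.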 Bounds are passed on as bounds.

In the case of `C=C1C[C@]23C[C@@]1(O)CC[C@H]2[C@@]12C=C[C@H](O)[C@@](C)(C(=O)O1)[C@H]2[C@@H]3C(=O)O`, the TGI in experiment [1], in [2], in [3], in [4], in experiment [5] and in experiment [6] was > 100 µM each time. For the same compound, the TGI in [7] and in experiment [8] was > 100 µM each time.

Consider `NC(=O)COc1ccccc1`, for which the TGI in experiment [1], in [2], in [3], in experiment [4], in experiment [5] and in [6] was > 100 µM in each case. Moreover, the TGI in [7] and in experiment [8] was > 100 µM throughout.

Turning to `O=[As](O)(O)c1cc(N=Nc2ccc(-c3ccc(N=Nc4cc([As](=O)(O)O)c(O)cc4O)cc3)cc2)c(O)cc1O`, the TGI is > 56.8 µM in [1]; > 100 µM in experiment [2]; > 100 µM in experiment [3]; > 100 µM in experiment [4]; > 100 µM in experiment [5]; > 100 µM in [6]. Further, the TGI in experiment [7] and in [8] was > 100 µM in each case.

With `COS(=O)c1cc(Cl)cc(Cl)c1O` (stereo not drawn), the TGI in experiment [1], in [2], in [3], in [4], in experiment [6] and in experiment [8] was > 100 µM each time.

`CCN(CC)CCCNc1ccc2nnn3c4ccc(O)cc4c(=O)c1c23`: the TGI in [1] was 19.3 µM; in experiment [2] it was 26.8 µM; in experiment [3], 29.8 µM; in experiment [4] it was 6.27 µM; in experiment [5] it was 32.5 µM; in experiment [6], 23.4 µM. Besides, the TGI in [9] amounted to 20.9 µM; in [10], 27 µM; in experiment [7], 22.6 µM; in [11], 31 µM; in experiment [8] it was 23.5 µM.

Regarding `CCCCCCCCCCCCCCCCCCOCC(O)COP(=O)(O)OCC1OC(n2cc(F)c(=O)[nH]c2=O)CC1O` (stereo not drawn), the TGI in experiment [1] was 32.2 µM; in [3], > 74.2 µM; in [4], 19.6 µM; in experiment [6], 2.92 µM; in experiment [9], 36.1 µM; in [10], 27.3 µM. The figures for the TGI in experiment [7], in experiment [11] and in experiment [8] were 24.1 µM, 23.5 µM and 16.9 µM, respectively.

In the case of `CCOC(=O)C(Cc1ccccc1)(Cc1ccc(O)cn1)NC(=O)c1ccccc1` (stereo not drawn), the TGI in [1] is 97.7 µM; in [3], > 100 µM; in [4], > 100 µM; in experiment [6], > 100 µM; in [9], 99.6 µM; in experiment [10], 81 µM. The results for the TGI in [7], in experiment [11] and in [8] were 36.6 µM, 63.6 µM and > 100 µM, respectively.

Regarding `COc1cc(C2C3=C(COC3=O)OC(C)(C)Oc3cc4c(cc32)OCO4)cc(OC)c1OC` (stereo not drawn), the TGI was > 96.2 µM in [1]; > 100 µM in experiment [3]; 5.86 µM in experiment [4]; > 100 µM in experiment [6]; > 100 µM in experiment [9]; > 100 µM in [10]. For the same compound, the TGI in [7] is 2.33 µM; in [11] it was > 100 µM; in [8], > 100 µM.

With `N#CC1=CNc2sccc2S1(=O)=O`, the TGI in [1], in experiment [3], in [4], in experiment [6], in experiment [9] and in experiment [10] was > 100 µM each time. The TGI in [7], in experiment [11] and in experiment [8] was > 100 µM each time.

As to `COc1cc(/C=C2/SC(c3ccccc3)N(c3cccc([N+](=O)[O-])c3)C2=O)cc(OC)c1OC` (stereo not drawn), the TGI in [1], in experiment [3], in [4], in experiment [6], in [9] and in experiment [10] was > 100 µM throughout. Besides, the TGI in experiment [7], in [11] and in experiment [8] was > 100 µM throughout.

Consider `O=C1NC(N/N=C\c2ccccc2)=N/C1=C/c1ccc(Cl)cc1`, for which the TGI in experiment [1] was 31.4 µM; in experiment [3] it was 67.4 µM; in experiment [4], 36.2 µM; in [6] it was 36.9 µM; in experiment [9] it was > 100 µM; in [10], 49.5 µM. Besides, the results for the TGI in [7], in experiment [11] and in [8] were 43.9 µM, 51.4 µM and 39.9 µM, respectively.

Regarding `COc1ccc(OC)c2cc(Cc3ccc(N(C)C)cc3)c(=O)c(Cc3ccc(N(C)C)cc3)cc12`, the TGI in experiment [1], in [3], in [4], in experiment [6], in [9] and in experiment [10] was > 100 µM each time. Besides, the TGI in [7] was > 100 µM; in experiment [11], 87.7 µM; in [8], > 100 µM.

Consider `CCOP(=O)(OCC)C(Nc1ccc(F)cc1)c1cccc([N+](=O)[O-])c1` (stereo not drawn), for which the TGI in [1], in experiment [3], in experiment [4], in experiment [6], in [9] and in experiment [10] was > 100 µM each time. Further, the TGI in experiment [7], in experiment [11] and in [8] was > 100 µM in each case.

Take `COC(OC)C(O)C1OC=CC1n1cnc2c(N)ncnc21` (stereo not drawn): the TGI in [1], in experiment [3], in [4], in [6], in [9] and in experiment [10] was > 100 µM in each case. Moreover, the TGI in experiment [7], in experiment [11] and in [8] was > 100 µM throughout.

Regarding `CSC(=NC1=NC(C(F)(F)F)(C(F)(F)F)N=C(c2ccccc2)O1)SC`, the TGI in [1] came to 59.1 µM; in experiment [3], 42.3 µM; in experiment [4] it was 89.2 µM; in [6], 39.6 µM; in [9] it was 88.1 µM; in experiment [10] it was 82.4 µM. Moreover, the TGI in experiment [7] is 33.1 µM; in [11], 72.5 µM; in experiment [8], 65.5 µM.

Consider `COC(=O)C(COC(=O)/C=C/c1ccc(OC(C)=O)c(OC(C)=O)c1)OC(=O)/C=C/c1ccc(OC(C)=O)c(OC(C)=O)c1` (stereo not drawn), for which the TGI in experiment [1] stood at 35.1 µM; in [3] it was 36.9 µM; in experiment [4], 21.8 µM; in experiment [6] it was 43.4 µM; in experiment [9] it was 35.6 µM; in experiment [10] it was 33.5 µM. Further, the TGI in experiment [7] is 28.3 µM; in experiment [11], > 100 µM; in [8], 71.8 µM.

As to `CC(C)(C)OC(=O)N1C(OP(=O)(Oc2ccccc2)Oc2ccccc2)=COc2cccnc21`, the TGI in [1], in experiment [3], in experiment [4], in experiment [6], in experiment [9] and in experiment [10] was > 100 µM in each case. Also, the TGI is 35.5 µM in [7], > 100 µM in experiment [11] and > 100 µM in experiment [8].

`Cc1cc(S(=O)(=O)Nc2nnc3cc(C(F)(F)F)cc(C)n23)c(S)cc1Cl`: the TGI in [1] is > 100 µM; in experiment [3] it was > 100 µM; in experiment [4], > 100 µM; in experiment [6], > 70.1 µM; in experiment [9], > 100 µM; in experiment [10], > 100 µM. In addition, the TGI in experiment [7], in experiment [11] and in experiment [8] was > 100 µM each time.

(Values after PubChem BioAssay (NCI).)
